The values below come from article PMC7158045 (BMC Plant Biology, 2020).

SMILES strings stand for the structures.

Experiment in all cases: biochemical
One assay addresses T1, ZmDRIK1-K217-P492 (Zea mays, UniProt C0P4K9).
T1 construct: kinase domain, K217-P492
T1 sequence (C0P4K9 1-514): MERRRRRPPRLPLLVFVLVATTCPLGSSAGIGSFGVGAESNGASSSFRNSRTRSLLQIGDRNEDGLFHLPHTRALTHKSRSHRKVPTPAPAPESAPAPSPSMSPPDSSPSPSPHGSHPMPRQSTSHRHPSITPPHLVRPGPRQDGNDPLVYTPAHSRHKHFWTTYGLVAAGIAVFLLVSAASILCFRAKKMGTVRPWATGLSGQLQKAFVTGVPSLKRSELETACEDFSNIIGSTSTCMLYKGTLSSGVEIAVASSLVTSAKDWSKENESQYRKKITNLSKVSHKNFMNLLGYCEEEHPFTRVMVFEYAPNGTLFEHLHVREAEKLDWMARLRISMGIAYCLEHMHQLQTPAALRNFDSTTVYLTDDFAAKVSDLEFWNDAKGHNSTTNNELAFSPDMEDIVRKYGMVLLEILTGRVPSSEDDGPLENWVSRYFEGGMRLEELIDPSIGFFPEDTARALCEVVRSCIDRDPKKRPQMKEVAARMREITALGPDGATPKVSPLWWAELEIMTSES
Conditions: read-out: dTm B, sheet ZmDRIK1-K217-P492;; DSF, Boltzmann fit, 0.1% DMSO.

In another assay the target is T2, ZmDRIK1-K217-S514 (Zea mays, UniProt C0P4K9).
T2 construct: kinase domain, K217-S514
T2 sequence (C0P4K9 1-514): T1 sequence (C0P4K9 1-514)
Conditions: read-out: dTm B, sheet ZmDRIK1-K217-S514;; DSF, Boltzmann fit, 0.1% DMSO.

Assay [1] addresses T3, ZmDRIK1 (DROUGHT RESPONSIVE INACTIVE KINASE 1), kinase domain (Zea mays, UniProt C0P4K9).
T3 construct: gene ZEAMMB73_Zm00001d028770; ZmDRIK1-KD R187-S514 (kinase domain)
T3 sequence (C0P4K9 187-514): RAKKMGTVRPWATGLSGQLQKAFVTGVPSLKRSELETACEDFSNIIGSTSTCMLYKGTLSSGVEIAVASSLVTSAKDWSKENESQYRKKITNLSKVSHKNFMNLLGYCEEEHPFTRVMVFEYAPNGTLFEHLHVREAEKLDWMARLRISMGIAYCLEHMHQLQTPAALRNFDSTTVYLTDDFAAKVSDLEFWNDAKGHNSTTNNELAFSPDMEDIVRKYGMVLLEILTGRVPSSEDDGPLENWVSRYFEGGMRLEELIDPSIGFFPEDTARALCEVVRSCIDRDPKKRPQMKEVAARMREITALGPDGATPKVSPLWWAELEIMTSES
Conditions: read-out: dTm B, sheet ZmDRIK1-R187-S514;; DSF, Boltzmann fit, 0.1% DMSO.

The target of the next assay is T4, ZmDRIK1-R187-P492 (Zea mays, UniProt C0P4K9).
T4 construct: kinase domain, R187-P492
T4 sequence (C0P4K9 1-514): T1 sequence (C0P4K9 1-514)
As to conditions: read-out: dTm B, DSF, Boltzmann fit, 0.1% DMSO.

Take `COc1ccc(CNC(=O)Nc2ncc([N+](=O)[O-])s2)cc1` [AR-A014418]: the ΔTm at 10 µM at ZmDRIK1-K217-P492 was -0.984 °C; at ZmDRIK1-K217-S514, -0.49 °C; in assay [1], -1.03 °C; at ZmDRIK1-R187-P492, -0.199 °C.
In the case of `CO[C@@H](C(=O)N1Cc2[nH]nc(NC(=O)c3ccc(N4CCN(C)CC4)cc3)c2C1)c1ccccc1` [Danusertib (PHA-739358)], the ΔTm at 10 µM at ZmDRIK1-K217-P492 is -0.905 °C; at ZmDRIK1-K217-S514 it was -0.209 °C; in assay [1], -0.644 °C; at ZmDRIK1-R187-P492 it was -0.184 °C.
The corresponding values for `Nc1cccc(-c2cc3c(Oc4cccc(O)c4)ncnc3[nH]2)c1` [TWS119] are -0.79 °C, -0.297 °C, -0.75 °C and -0.00936 °C.
Take `Cc1cc(Nc2ncc(Cl)c(Nc3ccccc3S(=O)(=O)C(C)C)n2)c(OC(C)C)cc1C1CCNCC1` [LDK378]: the ΔTm at 10 µM on ZmDRIK1-K217-P492 was -1.23 °C; on ZmDRIK1-K217-S514, -0.431 °C; in assay [1], -0.744 °C; on ZmDRIK1-R187-P492, -0.522 °C.
For the compound `NC1(C(=O)N[C@@H](CCO)c2ccc(Cl)cc2)CCN(c2ncnc3[nH]ccc23)CC1` [AZD5363], the ΔTm at 10 µM at ZmDRIK1-K217-P492 was -1.06 °C; at ZmDRIK1-K217-S514, -0.652 °C; in assay [1] it was -0.693 °C; at ZmDRIK1-R187-P492, -0.504 °C.
With `CN(C)CCCn1cc(C2=C(c3c[nH]c4ccccc34)C(=O)NC2=O)c2ccccc21` [GF109203X], the ΔTm at 10 µM was -1.16 °C at ZmDRIK1-K217-P492, -0.324 °C on ZmDRIK1-K217-S514, -0.748 °C in assay [1] and -0.337 °C at ZmDRIK1-R187-P492.
For `C=CC(=O)Nc1ccc2ncnc(Nc3ccc(OCc4cccc(F)c4)c(Cl)c3)c2c1` [AST-1306], the ΔTm at 10 µM at ZmDRIK1-K217-P492 was -1.48 °C; on ZmDRIK1-K217-S514 it was -1.18 °C; in assay [1], -7.98 °C; on ZmDRIK1-R187-P492 it was -5.11 °C.
Take `N#CCNC(=O)c1ccc(-c2ccnc(Nc3ccc(N4CCOCC4)cc3)n2)cc1` [CYT387]: the ΔTm at 10 µM on ZmDRIK1-K217-P492 is -0.574 °C; at ZmDRIK1-K217-S514, -0.388 °C; in assay [1], -0.664 °C; at ZmDRIK1-R187-P492, -0.227 °C.
The corresponding values for `Cc1csc(-c2nnc(Nc3ccc(Oc4ncccc4-c4ccnc(N)n4)cc3)c3ccccc23)c1` [AMG-900] are -3.86 °C, -2.33 °C, -6.12 °C and -0.572 °C.
Consider `O=C1NC(=O)C(=Cc2ccc(-c3ccc(F)cc3)o2)S1` (stereo in doubt) [CAY10505], for which the ΔTm at 10 µM on ZmDRIK1-K217-P492 was -0.834 °C; on ZmDRIK1-K217-S514 it was -0.62 °C; in assay [1] it was -0.534 °C; on ZmDRIK1-R187-P492, -0.47 °C.
The corresponding values for `CCC(=O)Nc1cccc(Oc2nc(Nc3ccc(N4CCN(C)CC4)cc3OC)ncc2Cl)c1` [WZ4003] are -1.1 °C, -0.358 °C, -0.786 °C and -0.432 °C.
Regarding `COc1cc(OC)c(/C=C/S(=O)(=O)Cc2ccc(OC)c(NCC(=O)O)c2)c(OC)c1` [Rigosertib (ON-01910)], the ΔTm at 10 µM was -0.805 °C at ZmDRIK1-K217-P492, -0.421 °C at ZmDRIK1-K217-S514, -0.824 °C in assay [1] and -0.217 °C on ZmDRIK1-R187-P492.
Take `Cc1cc(C)nc(NS(=O)(=O)c2ccc(NC(=S)NC(=O)COc3ccc(Br)cc3Cl)cc2)n1` [ZCL278]: the ΔTm at 10 µM on ZmDRIK1-K217-P492 was -1.02 °C; at ZmDRIK1-K217-S514, -0.166 °C; in assay [1], -1.01 °C; on ZmDRIK1-R187-P492, -0.134 °C.
Regarding `O=C(Nc1nc2cccc(-c3ccc(CN4CCS(=O)(=O)CC4)cc3)n2n1)C1CC1` [Filgotinib (GLPG0634)], the ΔTm at 10 µM at ZmDRIK1-K217-P492 is -1.16 °C; at ZmDRIK1-K217-S514, -0.594 °C; in assay [1], -0.878 °C; on ZmDRIK1-R187-P492 it was -0.607 °C.
Consider `CN1CCN(C2CCN(C(=O)Nc3cc(Oc4ccc(NC(=O)C5(C(=O)Nc6ccc(F)cc6)CC5)c(F)c4)ccn3)CC2)CC1` [Golvatinib (E7050)], for which the ΔTm at 10 µM was -0.473 °C on ZmDRIK1-K217-P492, -0.278 °C on ZmDRIK1-K217-S514, -0.382 °C in assay [1] and -0.232 °C at ZmDRIK1-R187-P492.
In the case of `CC1=C(C(=O)Nc2cc3cn[nH]c3cc2F)C(c2ccc(C(F)(F)F)cc2)CC(=O)N1` (centres unmarked) [GSK429286A], the ΔTm at 10 µM at ZmDRIK1-K217-P492 is -1.02 °C; on ZmDRIK1-K217-S514 it was -0.373 °C; in assay [1] it was -0.758 °C; on ZmDRIK1-R187-P492, -0.447 °C.
The corresponding values for `O=C1NC(=O)/C(=C/c2ccc3c(c2)OC(F)(F)O3)S1` [AS-604850] are -0.999 °C, -0.526 °C, -0.905 °C and -0.284 °C.
The corresponding values for `CO[C@H]1C[C@@H]2CC[C@@H](C)[C@@](O)(O2)C(=O)C(=O)N2CCCC[C@H]2C(=O)O[C@H]([C@H](C)C[C@@H]2CC[C@@H](O)[C@H](OC)C2)CC(=O)[C@H](C)/C=C(\C)[C@@H](O)[C@@H](OC)C(=O)[C@H](C)C[C@H](C)/C=C/C=C/C=C/1C` [Rapamycin (Sirolimus)] are -1.45 °C, -0.483 °C, -1.41 °C and -1.03 °C.
In the case of `COc1ccc(-c2ccc3c(N4CCOCC4)nc(N4C[C@@H](C)O[C@@H](C)C4)nc3n2)cc1CO` [KU-0063794], the ΔTm at 10 µM on ZmDRIK1-K217-P492 is -1.21 °C; at ZmDRIK1-K217-S514, -0.302 °C; in assay [1], -0.516 °C; at ZmDRIK1-R187-P492 it was -0.299 °C.
The corresponding values for `COc1cc(F)c(F)c(Nc2ccc(I)cc2F)c1NS(=O)(=O)C1(C[C@H](O)CO)CC1` [Refametinib (RDEA119)] are -0.93 °C, -0.254 °C, -1.12 °C and -0.163 °C.
In the case of `C=CC(=O)Nc1cc(Nc2nccc(-c3cn(C)c4ccccc34)n2)c(OC)cc1N(C)CCN(C)C` [AZD9291], the ΔTm at 10 µM on ZmDRIK1-K217-P492 is -1.19 °C; on ZmDRIK1-K217-S514 it was -0.27 °C; in assay [1], -0.497 °C; on ZmDRIK1-R187-P492 it was -0.293 °C.
On to `Clc1ccc(Nc2nnc(Cc3ccncc3)c3ccccc23)cc1` [Vatalanib (PTK787) 2HCl], for which the ΔTm at 10 µM on ZmDRIK1-K217-P492 was -1.11 °C; at ZmDRIK1-K217-S514 it was -0.391 °C; in assay [1] it was -0.775 °C; on ZmDRIK1-R187-P492, -0.124 °C.
On the same counts, the results for `CCN(CCO)CCCOc1ccc2c(Nc3cc(CC(=O)Nc4cccc(F)c4)[nH]n3)ncnc2c1` [Barasertib (AZD1152-HQPA)] are -0.927 °C, -0.253 °C, -1.11 °C and -0.129 °C.
On to `C=CC(=O)Nc1ccc2ncnc(Nc3cccc(Br)c3)c2c1` [PD168393], for which the ΔTm at 10 µM was -0.0923 °C at ZmDRIK1-K217-P492, 0.721 °C at ZmDRIK1-K217-S514, -0.108 °C in assay [1] and 0.724 °C on ZmDRIK1-R187-P492.
The corresponding values for `CC(C)NC[C@@H](C(=O)N1CCN(c2ncnc3c2[C@H](C)C[C@H]3O)CC1)c1ccc(Cl)cc1` [GDC-0068] are -1.1 °C, -0.251 °C, -0.503 °C and -0.352 °C.
As for `CN1CCC(c2c(O)cc(O)c3c(=O)cc(-c4ccccc4Cl)oc23)C1CO` (centres unmarked) [P276-00], the ΔTm at 10 µM is -0.275 °C on ZmDRIK1-K217-P492, -0.359 °C at ZmDRIK1-K217-S514, -0.748 °C in assay [1] and -0.274 °C on ZmDRIK1-R187-P492.
As for `Cc1cc(CN2CCN(c3c(Br)cnc4nc(-c5ccc(N6CCN(C)CC6)cc5)[nH]c34)CC2)no1` [CCT137690], the ΔTm at 10 µM at ZmDRIK1-K217-P492 was -0.814 °C; on ZmDRIK1-K217-S514 it was -0.286 °C; in assay [1], -1.09 °C; at ZmDRIK1-R187-P492, -0.157 °C.
For the compound `Cc1ccc(C(=O)Nc2cccc(C(F)(F)F)c2)cc1Nc1nc(-c2cccnc2)nc2c1cnn2C` [NVP-BHG712], the ΔTm at 10 µM on ZmDRIK1-K217-P492 was -0.914 °C; at ZmDRIK1-K217-S514 it was 0.0902 °C; in assay [1], -2.05 °C; at ZmDRIK1-R187-P492, -0.0503 °C.
On the same counts, the results for `O=c1cc(CN2CCOCC2)occ1OCCCCCSc1ccnc2cc(C(F)(F)F)ccc12` [EHT 1864] are -0.4 °C, -0.387 °C, -0.648 °C and -0.298 °C.
